According to US20220169654A1, “New Organic Compounds” (Servier Pharmaceuticals LLC, priority 2020, published 2022):

What was measured:
MAT2A homodimer = target: T1, MAT2A homodimer (Homo sapiens, UniProt P31153); assay: MAT2A inhibition (biochemical, liberated phosphate, PiColorLock Gold); conditions: recombinant MAT2A homodimer; IC50 bin with Max Inh.; read-out: Enzyme Inhibition Bin
T1 construct: inferred from Ni sepharose purification with imidazole elution; made in house; host or cells: Sf9 insect cells, baculovirus (Bac to Bac, pFASTBAC1)
T1 sequence (P31153 whole entry): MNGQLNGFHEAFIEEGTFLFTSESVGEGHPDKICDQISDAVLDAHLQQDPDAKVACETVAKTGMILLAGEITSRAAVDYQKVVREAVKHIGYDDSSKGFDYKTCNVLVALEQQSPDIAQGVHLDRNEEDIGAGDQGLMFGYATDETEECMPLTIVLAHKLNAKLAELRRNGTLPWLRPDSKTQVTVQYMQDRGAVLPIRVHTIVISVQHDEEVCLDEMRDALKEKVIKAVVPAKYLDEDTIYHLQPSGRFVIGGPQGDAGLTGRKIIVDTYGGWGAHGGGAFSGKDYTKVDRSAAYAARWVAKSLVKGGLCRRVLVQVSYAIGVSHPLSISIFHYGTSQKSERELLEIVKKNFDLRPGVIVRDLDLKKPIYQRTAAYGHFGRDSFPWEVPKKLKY
How it was run: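 Baculovirus/Sf9-expressed, Ni-purified MAT2A (4 μg/mL) preincubated with compound 60 min at 25 °C in Tris pH 8.0/KCl/MgCl2 buffer. Reaction started with 500 μM ATP and 400 μM L-methionine (substrate-mix concentrations), run 60 min at 25 °C. Phosphate measured colorimetrically against a phosphate standard curve to give IC50.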

[1] = tested on: SAM in HCT116 human colon carcinoma cell line with MTAP gene deleted (MTAP −/−); assay: Cellular assay of target engagement (SAM), LC-MS/MS, 72 hrs; format: cell-based; conditions: HCT-116, IC50 bin with Max Inh., read-out: Cell 72 h SAM Inhibition (MTAP −/−)
How it was run: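 MTAP-deleted HCT116 cells plated 24 h, then given 10-point 3-fold dilutions for 72 hrs at 37° C. Intracellular SAM extracted in cold 80% methanol with 1M acetic acid and d3-SAM standard, quantified by LC-MS/MS (MRM m/z 399.2→250.1); IC50 derived.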

HCT116 MTAP−/− = assay: Inhibition of cellular proliferation, 4 days, Cell Titer Glo, HCT116 MTAP−/−; format: cell-based; conditions: Homo sapiens, HCT-116, 96 h, IC50 bin with Max Inh., read-out: 4 Day Relative Growth Inhibition (MTAP −/−)
How it was run: (§1)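 Isogenic HCT116 pair differing only in MTAP status, plated 24 h before treatment with 10-point 3-fold dilutions; 4 days at 37° C./5% CO2. Cell Titer Glo luminescence, blank-subtracted and normalised to 0.2% DMSO control, gives percentage proliferation vs log molar concentration for IC50.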

HCT116 MTAP+/+ = assay: Inhibition of cellular proliferation, 4 days, Cell Titer Glo, HCT116 MTAP+/+; format: cell-based; conditions: Homo sapiens, HCT-116, 96 h, IC50 bin with Max Inh., read-out: 4 Day Relative Growth Inhibition (MTAP +/+)
How it was run: as §1

| SMILES | IC50 (MAT2A homodimer) | IC50 [1] | IC50 (HCT116 MTAP−/−) | IC50 (HCT116 MTAP+/+) |
| --- | --- | --- | --- | --- |
| [2H]C([2H])([2H])Oc1ccc(-c2c(=O)n(-c3ccc4nn(C)cc4c3)nc3c(C)nn(CC4CC4)c23)cc1 [Example 216, 1-(cyclopropylmethyl)-7-(4-(methoxy-d3)phenyl)-3-methyl-5-(2-methyl-2H-indazol-5-yl)-1,5-dihydro-6H-pyrazolo[4,3-c]pyridazin-6-one] | < 100 nM | < 100 nM | < 100 nM | 100 to 1000 nM |
| Cn1cc2cc(-n3nc4c(S(N)(=O)=O)cn(CC5CC5)c4c(-c4ccc(C5CC5)nc4)c3=O)ccc2n1 [Example 185, 5-(cyclopropylmethyl)-4-(6-cyclopropylpyridin-3-yl)-2-(2-methyl-2H-indazol-5-yl)-3-oxo-3,5-dihydro-2H-pyrrolo[3,2-c]pyridazine-7-sulfonamide] | < 100 nM | 100 to 1000 nM | 100 to 1000 nM | > 1000 nM |
| CNCc1cn(CC2CC2)c2c(-c3ccc(C4CC4)nc3)c(=O)n(-c3ccc4nn(C)cc4c3)nc12 [Example 267, 5-(cyclopropylmethyl)-4-(6-cyclopropylpyridin-3-yl)-2-(2-methyl-2H-indazol-5-yl)-7-((methylamino)methyl)-2,5-dihydro-3H-pyrrolo[3,2-c]pyridazin-3-one] | < 100 nM | 100 to 1000 nM | 100 to 1000 nM | > 1000 nM |
| Cc1nc2ccc(-n3nc4c(C#N)cn(CC5CC5)c4c(-c4ccc(C5CC5)nc4)c3=O)cc2n1C [Example 148, 5-(cyclopropylmethyl)-4-(6-cyclopropylpyridin-3-yl)-2-(1,2-dimethyl-1H-benzo[d]imidazol-6-yl)-3-oxo-3,5-dihydro-2H-pyrrolo[3,2-c]pyridazine-7-carbonitrile] | < 100 nM | < 100 nM | < 100 nM | < 100 nM |
| Cn1cc2cc(-n3nc4c(C#N)cn(CC5CC5)c4c(-c4ccc(C(F)F)nc4)c3=O)ccc2n1 [Example 143, 5-(cyclopropylmethyl)-4-(6-(difluoromethyl)pyridin-3-yl)-2-(2-methyl-2H-indazol-5-yl)-3-oxo-3,5-dihydro-2H-pyrrolo[3,2-c]pyridazine-7-carbonitrile] | < 100 nM | < 100 nM | < 100 nM | 100 to 1000 nM |
| Cn1cc2cc(-n3nc4c(C#N)cn(CC5CC5)c4c(-c4ccc(C5CC5)cc4)c3=O)ccc2n1 [Example 138, 5-(cyclopropylmethyl)-4-(4-cyclopropylphenyl)-2-(2-methyl-2H-indazol-5-yl)-3-oxo-3,5-dihydro-2H-pyrrolo[3,2-c]pyridazine-7-carbonitrile] | < 100 nM | < 100 nM | < 100 nM | > 1000 nM |
| CC(C)c1cn(CC2CC2)c2c(-c3ccc(C4CC4)nc3)c(=O)n(-c3ccc4nn(C)cc4c3)nc12 [Example 248, 5-(cyclopropylmethyl)-4-(6-cyclopropylpyridin-3-yl)-7-isopropyl-2-(2-methyl-2H-indazol-5-yl)-2,5-dihydro-3H-pyrrolo[3,2-c]pyridazin-3-one] | < 100 nM | < 100 nM | < 100 nM | > 1000 nM |
| CNC(=O)c1cn(CC2CC2)c2c(-c3ccc(C4CC4)nc3)c(=O)n(-c3ccc4nn(C)cc4c3)nc12 [Example 162, 5-(cyclopropylmethyl)-4-(6-cyclopropylpyridin-3-yl)-N-methyl-2-(2-methyl-2H-indazol-5-yl)-3-oxo-2H,3H,5H-pyrrolopyridazine-7-carboxamide] | < 100 nM | < 100 nM | < 100 nM | 100 to 1000 nM |
| Cn1cc2cc(-n3nc4ccn(CC5CC5)c4c(-c4ccc(C(F)(F)F)nc4)c3=O)ccc2n1 [Example 118, 5-(cyclopropylmethyl)-2-(2-methyl-2H-indazol-5-yl)-4-(6-(trifluoromethyl)pyridin-3-yl)-2,5-dihydro-3H-pyrrolo[3,2-c]pyridazin-3-one] | < 100 nM | < 100 nM | < 100 nM | > 1000 nM |

The next lines start with the values.

| IC50 (MAT2A homodimer) | IC50 [1] | IC50 (HCT116 MTAP−/−) | IC50 (HCT116 MTAP+/+) | SMILES |
| --- | --- | --- | --- | --- |
| < 100 nM | < 100 nM | < 100 nM | > 1000 nM | Cc1ccc(-c2c(=O)n(-c3ccc4nn(C)cc4c3)nc3c(C)nn(CC4CC4)c23)cn1 [Example 217, 1-(cyclopropylmethyl)-3-methyl-5-(2-methyl-2H-indazol-5-yl)-7-(6-methylpyridin-3-yl)-1,5-dihydro-6H-pyrazolo[4,3-c]pyridazin-6-one] |
| < 100 nM | < 100 nM | 100 to 1000 nM | > 1000 nM | [2H]C([2H])([2H])Oc1ccc(-n2nc3c(C#N)cn(CC4CC4)c3c(-c3ccc(C)nc3)c2=O)cc1 [Example 131, 5-(cyclopropylmethyl)-2-(4-(methoxy-d3)phenyl)-4-(6-methylpyridin-3-yl)-3-oxo-3,5-dihydro-2H-pyrrolo[3,2-c]pyridazine-7-carbonitrile] |
| < 100 nM | < 100 nM | < 100 nM | > 1000 nM | CCc1ccc(-c2c(=O)n(-c3ccc4nc(C)n(C)c4c3)nc3ccn(CC4CC4)c23)cn1 [Example 142, 5-(cyclopropylmethyl)-2-(1,2-dimethyl-1H-benzo[d]imidazol-6-yl)-4-(6-ethylpyridin-3-yl)-2,5-dihydro-3H-pyrrolo[3,2-c]pyridazin-3-one] |
| < 100 nM | < 100 nM | < 100 nM | > 1000 nM | [2H]C([2H])([2H])Oc1ccc(-n2nc3ccn(CC4CC4)c3c(-c3ccc(C4CC4)nc3)c2=O)cc1 [Example 122, 5-(cyclopropylmethyl)-4-(6-cyclopropylpyridin-3-yl)-2-(4-(methoxy-d3)phenyl)-2,5-dihydro-3H-pyrrolo[3,2-c]pyridazin-3-one] |
| < 100 nM | 100 to 1000 nM | 100 to 1000 nM | > 1000 nM | Cn1cc2cc(-n3nc4ncn(CC5CC5)c4c(-c4ccc(OC(F)F)nc4)c3=O)ccc2n1 [Example 189, 5-(cyclopropylmethyl)-4-(6-(difluoromethoxy)pyridin-3-yl)-2-(2-methyl-2H-indazol-5-yl)-2,5-dihydro-3H-imidazo[4,5-c]pyridazin-3-one] |
| < 100 nM | < 100 nM | < 100 nM | < 100 nM | Cc1nn(CC2CC2)c2c(-c3ccc(OC(F)F)cc3)c(=O)n(-c3ccc4nn(C)cc4c3)nc12 [Example 212, 1-(cyclopropylmethyl)-7-(4-(difluoromethoxy)phenyl)-3-methyl-5-(2-methyl-2H-indazol-5-yl)-1,5-dihydro-6H-pyrazolo[4,3-c]pyridazin-6-one] |
| < 100 nM | < 100 nM | < 100 nM | 100 to 1000 nM | O=c1c(-c2ccc(OC(F)F)cc2)c2c(ccn2CC2CC2)nn1-c1ccncc1 [Example 226, 5-(cyclopropylmethyl)-4-(4-(difluoromethoxy)phenyl)-2-(pyridin-4-yl)-2,5-dihydro-3H-pyrrolo[3,2-c]pyridazin-3-one] |
| < 100 nM | < 100 nM | < 100 nM | 100 to 1000 nM | Cc1nn(CC2CC2)c2c(-c3ccc(Cl)cc3)c(=O)n(-c3ccc4nn(C)cc4c3)nc12 [Example 215, 7-(4-chlorophenyl)-1-(cyclopropylmethyl)-3-methyl-5-(2-methyl-2H-indazol-5-yl)-1,5-dihydro-6H-pyrazolo[4,3-c]pyridazin-6-one] |
